Measurements: patent publication US20030143172A1, “Hair treatment agent” (priority 2001, published 2003)

Legend:
[1] = Dechlorinating ability (iodometric titration of free chlorine in chlorine water); conditions: initial free chlorine 0.43
Protocol: To chlorine water having a previously determined free chlorine concentration, APS or AG was added and the amount of free chlorine decreased was measured. The free chlorine amount was measured by iodometric titiration.
To each of three Erlenmeyer flasks with a stopper, 10 ml of chlorine water having a known free chlorine concentration was added and thereto, APS or AG in an equimolar amount, 1.5 times molar amount or 2 times molar amount to the free chlorine in the solution was added and stirred. After 5 minutes, 10 minutes, 15 minutes and 20 minutes, the amount of free chlorine was titrated.
In the titration, 2 ml of each reaction solution was charged into another Erlenmeyer flask with a stopper, 50 ml of distilled water was added thereto, 1.0 g of potassium iodide and 1 ml of a 0.2% starch solution were further added and after stirring, a 0.1 N sodium thiosulfate standard solution was added dropwise. The point where purple color was faded out was designated as a final point. From the amount of sodium thiosulfate added dropwise at this time, the amount of free chlorine was calculated.

[2] = Ability of preventing decolorization of melanin pigment caused by chlorine (absorbance at 400 nm); design: species or system sepia officinailis; conditions: for 3 Hours After Addition abs / 6 Hours After Addition abs / Before Addition abs: 400 nm; for 3 Hours After Addition abs / Residual Ratio, 3H: 3 hours after addition of chlorine water; for 6 Hours After Addition abs / Residual Ratio, 6H: 6 hours after addition of chlorine water; for Before Addition abs: before addition of chlorine water (baseline)
Protocol: A melanin pigment (sepia officinailis) was added to a 2 N aqueous sodium hydroxide solution and dissolved under heating at 80° C. for 2 hours to adjust the melanin pigment content in the solution to 50 ppm. This melanin pigment solution was divided into 5 vessels and 5 kinds in total of sample solutions were prepared, namely, solutions adjusted to an APS concentration of 10 mM and 50 mM, solutions adjusted to an AG concentration of 10 mM and 50 mM, and a control having added thereto neither APS nor AG. Then, 4 ml of each solution was sampled in a sampling bottle and 0.5 ml of commercially available chlorine water (free chlorine concentration: about 0.43%) was added to each sampling bottle. As a blank, a melanin pigment solution was used. The prevention of melanin decolorization was evaluated by measuring the absorbance (abs) at 400 nm using a spectrophotometer when 3 hours (3 H) and 6 hours (6H) were passed after the addition of chlorine water.

[3] = Ability of preventing hair damage caused by chlorine (color difference ΔE of hair); design: species or system human; conditions: aqueous 10 mM solution, chlorine water, one hour
Protocol: 120 ml of an aqueous 10 mM APS solution, 120 ml of an aqueous 10 mM AG solution and 120 ml of purified water each was poured into two bottles with a screw opening. In the aqueous 10 mM APS solution, the aqueous 10 mM AG solution or the purified water, hair of an adult and hair of a child, which were previously subjected to the measurement of color (L*a*b color specification) by a spectrocolorimeter (Macbeth Gretag APM50), each was immersed in an amount of 70 to 80 mg while stirring. To each solution in which the hair was immersed, 15 ml of a commercially available chlorine water (concentration of free chlorine: about 0.43%) was added. After stirring for one hour, the hair was filtered, washed with water and air-dried. The resulting hairs were measured on the color (L*a*b* color specification) and from the values obtained, the color difference ΔE value was calculated.

[4] = Ability of preventing hair damage caused by sunlight (weather meter irradiation, ΔE of hair); conditions: pH 7.2, irradiation 24 hours
Protocol: An APS solution, an AG solution, which were each adjusted to a pH of 7.2 and a concentration of 10 mM or 100 mM, and purified water (control) each was charged into a polyethylene bag and in respective bags, from 70 to 80 g of hair previously measured on the color (L*a*b* color specification) by a spectrocolorimeter (Macbeth Gretag APM50) was enclosed. After the immersion for about 2 hours, light was irradiated thereon using a weather meter (high energy xenon weather meter, manufactured by Suga Shikenki K. K.). The irradiation time was 24 hours and the integrated light intensity was about 10,000 kj/m^2. The hair after the irradiation was washed with purified water, air-dried and then subjected to the measurement of color (L*a*b* color specification) and from the values obtained, the color difference ΔE value was calculated.

[5] = Hydroxy radical-scavenging ability (ESR-spin trap method); format: biochemical
Protocol: Using “ESR-spin trap method”, the radical scavenging in percentage of each of ascorbyl 2-phosphate sodium salt (APS), ascorbyl 2-phosphate magnesium salt (APM) and ascorbyl 2-glucoside (AG) was measured. The radicals were chemically generated.
10 μl of 1M HEPES buffer solution (pH: 7.2), 10 μl of 1 mM diethylenetriaminepentaacetic acid, each of 20 μl of APS, APM or AG solution, 100 μl of purified water, 40 μl of 40 mM 2,2′-azobis(2-methylpropionamidine)dihydrochloride and 20 μl of 0.5 M 5,5-dimethyl-1-pyrroline-N-oxide were added and mixed. The obtained solutions were sequentially enclosed into flat cells for ESR and the cells were placed in an ESR apparatus (“JES-RE1X”, manufactured by JEOL Ltd.) and subjected to the measurement of hydroxy radical-scavenging ability. The hydroxy radical-scavenging ability is shown by S/M value (area value of spectrum/area value of manganese marker) and the scavenging ratio is shown by percentage (%).

[6] = molar ratio additive:free chlorine 1.0:1.0
[7] = molar ratio additive:free chlorine 1.5:1.0
[8] = molar ratio additive:free chlorine 2.0:1.0

Row | Structure (SMILES) | Free chlorine After 5 Minutes [1, 6] [%] | Free chlorine After 10 Minutes [1, 6] [%] | Free chlorine After 15 Minutes [1, 6] [%] | Free chlorine After 20 Minutes [1, 6] [%] | Free chlorine After 5 Minutes [1, 7] [%] | Free chlorine After 10 Minutes [1, 7] [%] | Free chlorine After 15 Minutes [1, 7] [%] | Free chlorine After 20 Minutes [1, 7] [%] | Free chlorine After 5 Minutes [1, 8] [%] | Free chlorine After 10 Minutes [1, 8] [%] | Radical scavenging, % (S/M relative to 0 mM = 100.0) ([5]; concentration 0.01 mM) [%] | S/M (area value of spectrum/area value of manganese marker) ([5]; concentration 0.01 mM) | Radical scavenging, % (S/M relative to 0 mM = 100.0) ([5]; concentration 0.03 mM) [%] | S/M (area value of spectrum/area value of manganese marker) ([5]; concentration 0.03 mM) | Radical scavenging, % (S/M relative to 0 mM = 100.0) ([5]; concentration 0.1 mM) [%] | S/M (area value of spectrum/area value of manganese marker) ([5]; concentration 0.1 mM) | Radical scavenging, % (S/M relative to 0 mM = 100.0) ([5]; concentration 0.3 mM) [%] | S/M (area value of spectrum/area value of manganese marker) ([5]; concentration 0.3 mM) | Radical scavenging, % (S/M relative to 0 mM = 100.0) ([5]; concentration 1 mM) [%] | S/M (area value of spectrum/area value of manganese marker) ([5]; concentration 1 mM) | further results
1 | O=C1O[C@H]([C@@H](O)CO)C(O)=C1O[C@H]1O[C@H](CO)[C@@H](O)[C@H](O)[C@H]1O [AG, ascorbyl 2-glucoside] | 0.033 | 0.02 | 0.01 | 0 | 0.008 | 0 | 0 | 0 | 0 | 0 | 98.5 | 0.64 | 89.2 | 0.58 | 98.5 | 0.64 | 90.8 | 0.59 | 61.5 | 0.40 | Free chlorine After 15 Minutes [1, 8]: 0%; Free chlorine After 20 Minutes [1, 8]: 0%; 3 Hours After Addition abs ([2]; additive 10 mM): 0.458 abs; 6 Hours After Addition abs ([2]; additive 10 mM): 0.447 abs; Before Addition abs ([2]; additive 10 mM): 0.575 abs; Residual Ratio, 3H ([2]; additive 10 mM): 0.797; Residual Ratio, 6H ([2]; additive 10 mM): 0.777; 3 Hours After Addition abs ([2]; additive 50 mM): 0.553 abs; 6 Hours After Addition abs ([2]; additive 50 mM): 0.540 abs; Before Addition abs ([2]; additive 50 mM): 0.569 abs; Residual Ratio, 3H ([2]; additive 50 mM): 0.972; Residual Ratio, 6H ([2]; additive 50 mM): 0.949; ΔE Value of Hair Treated With Chlorine ([3]; hair of child): 1.1; ΔE Value of Weather Meter Treated-hair ([4]; concentration 10 mM): 10.72; ΔE Value of Weather Meter Treated-hair ([4]; concentration 100 mM): 6.01
2 | O=C1O[C@H]([C@@H](O)CO)C([O-])=C1OP(=O)([O-])[O-].O=C1O[C@H]([C@@H](O)CO)C([O-])=C1OP(=O)([O-])[O-].[Mg+2].[Mg+2].[Mg+2] [APM, ascorbyl 2-phosphate magnesium salt] | – | – | – | – | – | – | – | – | – | – | 89.2 | 0.58 | 92.3 | 0.60 | 81.5 | 0.53 | 64.6 | 0.42 | 18.5 | 0.12 | –
3 | O=C1O[C@H]([C@@H](O)CO)C([O-])=C1OP(=O)([O-])[O-].[Na+].[Na+].[Na+] [APS, ascorbyl 2-phosphate sodium salt] | 0.02 | 0.012 | 0.008 | 0 | 0.005 | 0 | 0 | 0 | 0 | 0 | 103.1 | 0.67 | 104.6 | 0.68 | 78.5 | 0.51 | 53.8 | 0.35 | 16.9 | 0.11 | Free chlorine After 15 Minutes [1, 8]: 0%; Free chlorine After 20 Minutes [1, 8]: 0%; 3 Hours After Addition abs ([2]; additive 10 mM): 0.449 abs; 6 Hours After Addition abs ([2]; additive 10 mM): 0.453 abs; Before Addition abs ([2]; additive 10 mM): 0.577 abs; Residual Ratio, 3H ([2]; additive 10 mM): 0.773; Residual Ratio, 6H ([2]; additive 10 mM): 0.785; 3 Hours After Addition abs ([2]; additive 50 mM): 0.545 abs; 6 Hours After Addition abs ([2]; additive 50 mM): 0.505 abs; Before Addition abs ([2]; additive 50 mM): 0.592 abs; Residual Ratio, 3H ([2]; additive 50 mM): 0.921; Residual Ratio, 6H ([2]; additive 50 mM): 0.853; ΔE Value of Hair Treated With Chlorine ([3]; hair of Adult person): 0.4; ΔE Value of Hair Treated With Chlorine ([3]; hair of child): 0.5; ΔE Value of Weather Meter Treated-hair ([4]; concentration 10 mM): 14.36; ΔE Value of Weather Meter Treated-hair ([4]; concentration 100 mM): 4.54
